Here are results for 23 compounds from patent US8106203B2, “Assay methods using chemiluminescent detection of peroxidase” (Lumigen, Inc., priority 2001, dated 2012).

Data set [1] has as its target T1, HRP (Armoracia rusticana, UniProt P00433).
T1 sequence (P00433 31-338): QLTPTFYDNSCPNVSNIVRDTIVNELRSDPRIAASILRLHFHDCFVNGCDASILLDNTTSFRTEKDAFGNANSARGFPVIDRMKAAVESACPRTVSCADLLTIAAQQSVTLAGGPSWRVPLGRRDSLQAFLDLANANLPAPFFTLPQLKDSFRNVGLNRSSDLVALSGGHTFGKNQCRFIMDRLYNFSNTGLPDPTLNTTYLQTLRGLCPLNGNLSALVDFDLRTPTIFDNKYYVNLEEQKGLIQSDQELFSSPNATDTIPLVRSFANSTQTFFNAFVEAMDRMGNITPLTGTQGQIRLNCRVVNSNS
Kind of data set: Comparison of signal intensity (Example 9): chemiluminescence on reaction of reagent with HRP. It is filed as biochemical, horseradish. To be noted: 3.5×10^−16 moles of HRP. How it is done: Reagent compositions comprising 0.01 M tris buffer, pH 8, 0.5 mM urea peroxide, 0.1 mM p-phenylphenol, […], 0.025% Tween 20, and 5×10^−5 M of each compound in the table below except the compound designated Ref. 1 were tested for production of chemiluminescence by reacting a 100 μL aliquot with 3.5×10^−16 moles of HRP. The reagent formulation for Ref. 1 comprised 0.05 M tris buffer, pH 8.6, 0.25 mM urea peroxide, 0.05 mM p-phenylphenol, 0.5 mM EDTA, 0.0125% Tween 20, and 3.3×10^−4 M Ref. 1. For comparison, data are provided for reference compounds 1 and 2.

In data set [2] the target is T1, HRP. Put plainly: Chemiluminescent detection of HRP with compound 1. Format: biochemical, horseradish. How it is done:
Reagent compositions comprising 0.01 M tris buffer, pH 7.0, 0.5 mm urea peroxide, 0.1 mM p-phenylphenol, 1 mM EDTA, 0.025% Tween 20 and 5×10^−5 M compound 1 were tested for production of chemiluminescence by reacting triplicate 100 μL aliquots with 10 μL of HRP in the range 1.4×10^−15 to 1.4×10^−20 moles. Light production ensued upon mixing and reached maximum intensity in about 1 min.

The target of another data set is T2, HRP-labeled antibody (Armoracia rusticana, UniProt P00433).
T2 sequence (P00433 31-338): T1 sequence (P00433 31-338)
Put plainly: Western blot of β-galactosidase via HRP-labeled antibody on PVDF membrane. It is filed as biochemical. How it is done: A western blot assay of β-galactosidase as the test antigen was conducted according to the procedure described in U. K. Laemmli, Nature (London), 227, 680 (1970) using a PVDF membrane. β-Galactosidase standards in the range of 5000-5 pg. The detection reagent containing Compound 1 permitted detection to be performed in under 1 minute.
On the technique in general: Immunoblotting shows a protein as a band on a membrane.

A further data set concerns peroxidase. Put plainly: Chemiluminescence on reaction with peroxide and a peroxidase (general). It is filed as biochemical. To be noted: mixtures of double bond isomers. From the text: Reaction of ketene dithioacetal compounds of formula I, including those shown above, with peroxide and a peroxidase generate chemiluminescence which rapidly reaches very high intensity. Maximum light emission is achieved in one minute or less and remains constant for several minutes. […] No other known chemiluminescent peroxidase substrate generates high intensity chemiluminescence so rapidly. This kinetic behavior in unexpected and contrasts with the chemiluminescence time profile of structurally related compounds disclosed in the aforementioned U.S. Pat. No. 5,922,558. For example, a compound having the formula:
[drawing 18] reacted with HRP was disclosed to reach maximum chemiluminescence intensity in 7 min. The ability of the compounds of the present invention to reach a stable maximum light intensity so rapidly makes them more suitable than other chemiluminescent compounds for peroxidase detection in the rapid high throughput assays in demand today.
Compounds and compositions of the present invention are useful in a method to produce chemiluminescence by reaction with a peroxidase. Reaction of a compound of the invention with a peroxidase and a peroxide in an aqueous buffer solution produces easily detectable visible chemiluminescence. Light intensity reaches a maximum level rapidly at room temperature, typically in about 1 minute. […]

The target of data set [3] is T1, HRP. Kind of data set: Comparison of signal intensity (Example 10): maximum signal with HRP. Format: biochemical, horseradish. To be noted: 3×10^−4 M compound, 0.025 M tris pH 8, 2.5 mM urea peroxide, 4 mM p-hydroxycinnamic acid; 3.5×10^−16 moles of HRP. The procedure: The maximum signal produced by each of compounds 14, and 27-29 was compared by reacting a 100 μL aliquot of reagent compositions comprising 0.025 M tris buffer, pH 8, 2.5 mM urea peroxide, 4 mM p-hydroxycinnamic acid, 0.5 mM EDTA, 0.1% Tween 20, and 3×10^−4 M of the test compound with 3.5×10^−16 moles of HRP. Each reagent reached maximum light intensity in about 1 minute.

Data set [4] addresses T1, HRP. Put plainly: Comparison of signal intensity (Example 17): maximum signal with HRP. Format: biochemical, horseradish. To be noted: 3.5×10^−16 moles of HRP. The procedure: The maximum signal produced by each of compounds 40-51 was compared by reacting a 100 μL aliquot of reagent compositions comprising 0.025 M tris buffer, pH 8, 2.5 mM urea peroxide, 4 mM p-hydroxycinnamic acid, 0.5 mM EDTA, 0.1% Tween 20, and either 1 mM, 0.3 mM, 0.15 mM or 0.05 mM of the test compound with 3.5×10^−16 moles of HRP. Each reagent reached maximum light intensity in 1-3 minutes.

Data set [5] is described as follows: Solubility in the aqueous formulation. It is filed as physicochemical. To be noted: 0.025 M tris pH 8 formulation with 0.1% Tween 20.
Data set [6] concerns the target T1, HRP. Put plainly: Chemiluminescent detection of HRP with compounds 52 and 53. It is filed as biochemical, horseradish. To be noted: 3×10^−4 M compound, HRP 1.4×10^−16 to 1.4×10^−21 moles. How it is done:
Reagent compositions comprising 0.025 M tris buffer, pH 8.0, 2.5 mM urea peroxide, 4 mM p-hydroxycinnamic acid, 0.5 mM EDTA, 0.1% Tween 20 and 3×10^−4 M compound 52 or 53 were tested for production of chemiluminescence by reacting triplicate 100 μL aliquots with 10 μL of HRP in the range 1.4×10^−16 to 1.4×10^−21 moles. […] The relation between peak chemiluminescence intensity and amount of enzyme is depicted in FIG. 8.

For data set [7], the target named is T1, HRP. Kind of data set: Stability of working solutions by solution assay. Format: physicochemical, horseradish. The procedure: Reagent stability of the working solutions of compound 53 and compound 46 was assessed by preparing the working solution by combining 50 μL aliquots of the two component solutions and storing the mixed solutions at 4° C. or room temperature. The working solution contained 0.025 M tris buffer, pH 8, 2.5 mM urea peroxide, 4 mm p-hydroxycinnamic acid, 0.5 mM EDTA, 0.1% Tween 20, and 0.05 mM of the substrate. Chemiluminescent assays were run with 3.5×10^−16 moles of HRP at 25° C. Maximum intensity results were compared to the values obtained with fresh reagent prepared from the individual components stored at 4° C. […] The composition containing compound 53 was unchanged after four months at 4° C., that containing compound 46 was unchanged after 9 months at 4° C.

The mark [8] stands for this setting: 5×10^−5 M compound, 0.01 M tris pH 8, 0.5 mM urea peroxide, 0.1 mM p-phenylphenol, 0.025% Tween 20.
Setting [9] is: 1 mM test compound (Formulation 1.0).

In the case of `CSC(SC)=C1c2ccccc2N(c2ccccc2)c2ccccc21` [Compound 1], the Signal/Background on HRP [1] (setting [8]) is on record as 8060. For the same compound, the “time to reach maximum intensity” value at HRP [2] (5×10^−5 M compound 1, pH 7.0, p-phenylphenol) is “about 1 min”. In addition, at HRP [2] (HRP 1.4×10^−15 to 1.4×10^−20 moles), the “log-log plot of chemiluminescence intensity vs. amount of enzyme” value is recorded as “linear over the entire range tested”. Besides, the “lower abundance bands able to be imaged” value at HRP-labeled antibody (β-galactosidase) is listed as no more than 1 pg. Moreover, at HRP-labeled antibody (β-galactosidase standards 5000-5 pg), the “time in which detection could be performed” value is “under 1 minute”. With `CSC(SC)=C1c2ccccc2N(C)c2ccccc21` [Compound 2], at HRP [1] (setting [8]), the Signal/Background was determined as 953.

Regarding `c1ccc(CSC(SCc2ccccc2)=C2c3ccccc3N(c3ccccc3)c3ccccc32)cc1` [Compound 3], the generation of chemiluminescence result with peroxidase was “Compounds 3, 4 and 6 were obtained as mixtures of double bond isomers. Each of these compounds generates chemiluminescence in the present invention”. With `CCCCCCCCSC(SC)=C1c2ccccc2N(c2ccccc2)c2ccccc21` [Compound 6], the generation of chemiluminescence entry with peroxidase was “Compounds 3, 4 and 6 were obtained as mixtures of double bond isomers. Each of these compounds generates chemiluminescence in the present invention”.

Take `CCCCCCCCSC(SCCCS(=O)(=O)[O-])=C1c2ccccc2N(c2ccccc2)c2ccccc21.[Li+]` [Compound 13]: the Signal/Background at HRP [1] (setting [8]) was determined as 7626.

As to `CSC(SCCCS(=O)(=O)[O-])=C1c2ccccc2N(Cc2ccc(Cl)cc2)c2ccccc21.[Na+]` [Compound 28], at HRP [3], the Signal/Background amounted to 6717. Same read-out and setting: the value for `COc1ccc(CN2c3ccccc3C(=C(SC)SCCCS(=O)(=O)[O-])c3ccccc32)cc1.[Na+]` [Compound 29] was 6621. On the same count and under the same terms, the value for `O=S(=O)([O-])CCCSC(SCc1ccccc1)=C1c2ccccc2N(Cc2ccccc2)c2ccccc21.[Na+]` [Compound 38] was 26000. The compound `CSC(SC)=C1c2ccccc2N(Cc2ccc(O)cc2)c2ccccc21` [Compound 40] yielded a Signal/Background at HRP [4] (setting [9]) of 4011. On the same count and under the same terms, under `O=S(=O)([O-])CCCSC(SCc1ccc(Cl)cc1)=C1c2ccccc2N(Cc2ccccc2)c2ccccc21.[Na+]` [Compound 41] stands 14000. In turn, `O=S(=O)([O-])CCCSC(SCc1ccccc1)=C1c2ccccc2N(c2ccccc2)c2ccccc21.[Na+]` [Compound 42] showed a Signal/Background at HRP [4] (setting [9]) of 9100. `OC1CSC(=C2c3ccccc3N(c3ccccc3)c3ccccc32)SC1` (centres unmarked) [Compound 45] gave a Signal/Background at HRP [4] (0.3 mM test compound) of 2102. Take `O=S(=O)([O-])CCCOC1CSC(=C2c3ccccc3N(Cc3ccccc3)c3ccccc32)SC1.[Na+]` (centres unmarked) [Compound 47]: at HRP [4] (setting [9]), the Signal/Background amounted to 7228. For the compound `O=P([O-])([O-])OCCCOC1CSC(=C2c3ccccc3N(Cc3ccccc3)c3ccccc32)SC1.[Na+].[Na+]` (centres unmarked) [Compound 48], the Signal/Background at HRP [4] (setting [9]) is 4219. `c1ccc(CN2c3ccccc3C(=C3SCCOCCOCCOCCOCCS3)c3ccccc32)cc1` [Compound 49] had a Signal/Background at HRP [4] (0.05 mM test compound) of 4853. Also, the “solubility in the aqueous formulation” value in data set [5] was “very poorly soluble”. With `O=S(=O)([O-])CCCOCCCN1c2ccccc2C(=C2Sc3ccccc3S2)c2ccccc21.[Na+]` [Compound 50], on HRP [4] (0.3 mM test compound), the Signal/Background was determined as 1651. `CN1c2ccccc2C(=C2Sc3ccccc3S2)c2ccccc21` [Compound 51] yielded a Signal/Background on HRP [4] (0.05 mM test compound) of 4264. Further, the “solubility in the aqueous formulation” value in data set [5] is “very poorly soluble”. As to `O=S(=O)([O-])CCCOCCCSC(SCCCO)=C1c2ccccc2N(Cc2ccccc2)c2ccccc21.[Na+]` [Compound 52], the Signal/Background on HRP [4] (0.15 mM test compound) was 5840. In addition, the “rise of light to maximum intensity” value at HRP [6] is “reached maximum intensity rapidly”. On HRP [4] (0.15 mM test compound), `CSC(SCCCOCCCS(=O)(=O)[O-])=C1c2ccccc2N(Cc2ccccc2)c2ccccc21.[Na+]` [Compound 53] returned a Signal/Background of 5742. Moreover, the “rise of light to maximum intensity” value at HRP [6] is recorded as “reached maximum intensity rapidly”. Moreover, the “working solution composition after storage” value on HRP [7] (four months at 4° C.) was “unchanged”. Further, on HRP [7] (up to three weeks at room temperature, 0.05 mM substrate), the “reagent performance on storage of working solution” value is “no deterioration of reagent performance”.

The compound `CSC(SCCCSCCCS(=O)(=O)[O-])=C1c2ccccc2N(c2ccccc2)c2ccccc21.[Na+]` [Compound 54] came in with a Signal/Background at HRP [4] (0.15 mM test compound) of 2502.

Regarding `CSC(SCCCOS(=O)(=O)[O-])=C1c2ccccc2N(Cc2ccccc2)c2ccccc21.[Na+]` [Compound 55], at HRP [4] (0.3 mM test compound), the Signal/Background turned out to be 5408.

Regarding `CN1c2ccccc2C(=C(OP(=O)([O-])[O-])Sc2ccccc2)c2ccccc21.[Na+].[Na+]` [Ref. 1, reference compound], on HRP [1] (Ref. 1 formulation: 3.3×10^−4 M, 0.05 M tris pH 8.6, 0.25 mM urea peroxide, 0.05 mM p-phenylphenol), the Signal/Background was determined as 53. Moreover, at HRP-labeled antibody (β-galactosidase), the “chemiluminescence intensity and exposure needed, compared with the compound 1 reagent” value was “lower intensity chemiluminescence and required longer exposures”; the “lower abundance bands able to be imaged” value is recorded as “not possible to image”. As for `COC(Sc1ccccc1)=C1c2ccccc2N(C)c2ccccc21` [Ref. 2, reference compound], the Signal/Background on HRP [1] (setting [8]) amounted to 325.
